Bounds are passed on as bounds.

The target of this assay is T1, hTRPC5 (Homo sapiens, UniProt Q9UL62).
T1 construct: expressed in transfected cells; host or cells: HEK293 TREx cells with inducible TRPC5 expression
T1 sequence (Q9UL62 1-973): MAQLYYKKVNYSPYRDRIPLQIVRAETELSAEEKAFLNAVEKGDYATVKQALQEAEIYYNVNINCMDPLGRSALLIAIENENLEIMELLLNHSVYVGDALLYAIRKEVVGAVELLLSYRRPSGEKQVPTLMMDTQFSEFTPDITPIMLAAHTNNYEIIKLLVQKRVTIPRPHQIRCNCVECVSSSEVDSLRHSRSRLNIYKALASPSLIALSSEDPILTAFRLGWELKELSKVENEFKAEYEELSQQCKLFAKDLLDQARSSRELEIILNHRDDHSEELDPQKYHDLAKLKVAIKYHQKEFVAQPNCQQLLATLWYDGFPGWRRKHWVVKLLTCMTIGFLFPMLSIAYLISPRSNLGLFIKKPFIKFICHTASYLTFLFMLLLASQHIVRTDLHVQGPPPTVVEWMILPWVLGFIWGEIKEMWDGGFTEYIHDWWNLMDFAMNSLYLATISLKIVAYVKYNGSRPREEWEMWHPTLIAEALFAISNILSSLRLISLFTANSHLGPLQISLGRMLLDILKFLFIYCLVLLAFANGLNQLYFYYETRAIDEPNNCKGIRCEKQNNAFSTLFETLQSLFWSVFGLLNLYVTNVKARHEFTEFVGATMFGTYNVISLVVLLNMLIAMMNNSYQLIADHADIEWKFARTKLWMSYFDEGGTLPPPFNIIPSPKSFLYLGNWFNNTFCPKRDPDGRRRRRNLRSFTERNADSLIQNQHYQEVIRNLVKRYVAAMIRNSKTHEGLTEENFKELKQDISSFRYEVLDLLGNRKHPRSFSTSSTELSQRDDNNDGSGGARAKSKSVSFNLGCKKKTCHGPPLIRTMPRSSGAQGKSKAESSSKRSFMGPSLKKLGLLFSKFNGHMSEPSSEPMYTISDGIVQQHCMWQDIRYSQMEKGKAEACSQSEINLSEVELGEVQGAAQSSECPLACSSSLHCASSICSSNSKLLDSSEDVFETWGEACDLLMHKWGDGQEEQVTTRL
Put plainly: Whole-cell patch clamp, block of LaCl3-activated TRPC5 inward current. Conditions: TRPC5-expressing HEK293 TREx cells, 80 μM LaCl3, inward current, IC50 estimated from 5 μM and 500 nM, read-out: hTRPC5 Patch La3+ Inwd (nM) (All Batches). The class given is cell-based. In short, it runs like this: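 Whole-cell recordings in induced TRPC5-expressing HEK293 TREx cells, holding −40 mV, 400 ms ramps −120 to +100 mV every 5 s; current activated by 80 μM external LaCl3 and 1,400 nM pipette free Ca2+ (pH 7.2 internal, 7.4 external). Inward block at −80 mV, with LaCl3 present; IC50 estimated from testing at 5 μM and 500 nM.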
For `CCOC(=O)C(C)(C)Sc1nc2c(c(=O)n(C)c(=O)n2C)n1Cc1cccc(Br)c1` [Compound 9, Ethyl 2-(7-(3-bromobenzyl)-1,3-dimethyl-2,6-dioxo-2,3,6,7-tetrahydro-1H-purin-8-ylthio)-2-methylpropanoate], the IC50 is under 100 nM.
The same measure for `Cn1c(=O)c2c(nc(Oc3cccc(C(F)(F)F)c3)n2Cc2cccc(Br)c2)n(C)c1=O` [Compound 138, 7-(3-Bromobenzyl)-1,3-dimethyl-8-(3-(trifluoromethyl)phenoxy)-1H-purine-2,6(3H,7H)-dione]: 100 to 500 nM; for `Cn1c(=O)c2c(nc(SCc3ccccn3)n2Cc2cccc(Br)c2)n(C)c1=O` [Compound 12, 7-(3-bromobenzyl)-1,3-dimethyl-8-(pyridin-2-ylmethylthio)-1H-purine-2,6(3H,7H)-dione]: 500 to 1000 nM.
The same measure for `CCc1coc(CSc2nc3c(c(=O)n(C)c(=O)n3C)n2Cc2cccc(C)c2)n1` [Compound 132, 8-((4-ethyloxazol-2-yl)methylthio)-1,3-dimethyl-7-(3-methylbenzyl)-1H-purine-2,6(3H,7H)-dione]: 100 to 500 nM.
To `CN(C)C(=O)c1cccc(Oc2nc3c(c(=O)n(C)c(=O)n3C)n2Cc2cccc(Br)c2)c1` [Compound 127] belongs 2000 to 10000 nM.
As for `CCCCOCc1nc2c(c(=O)n(C)c(=O)n2C)n1Cc1cccc(Br)c1` [Compound 55, 7-(3-bromobenzyl)-8-(butoxymethyl)-1,3-dimethyl-1H-purine-2,6(3H,7H)-dione], the IC50 was 500 to 1000 nM.
To `Cn1c(=O)c2c(nc(Nc3cccc(C(F)(F)F)c3)n2Cc2cccc(Br)c2)n(C)c1=O` [Compound 172] belongs 2000 to 10000 nM.
For the compound `CCCC(=O)c1cccc(Cc2nc3c(c(=O)n(C)c(=O)n3C)n2Cc2cccc(Br)c2)c1` [Compound 161, 7-(3-bromobenzyl)-8-(3-butyrylbenzyl)-1,3-dimethyl-1H-purine-2,6(3H,7H)-dione], the IC50 was 2000 to 10000 nM.
To `Cn1c(=O)c2c(nc(Oc3cncc(C(F)(F)F)c3)n2Cc2ccc(Cl)cc2)n(C)c1=O` [Compound 184, 7-(4-chlorobenzyl)-1,3-dimethyl-8-(5-(trifluoromethyl)pyridin-3-yloxy)-1H-purine-2,6(3H,7H)-dione] belongs 1000 to 2000 nM.
To `CCCOCCc1nc2c(c(=O)n(C)c(=O)n2C)n1Cc1ccc(F)cc1` [Compound 108] belongs 2000 to 10000 nM; to `CCCc1cccc(Oc2nc3c(c(=O)n(C)c(=O)n3C)n2Cc2cccc(Br)c2)c1` [Compound 113, 7-(3-bromobenzyl)-1,3-dimethyl-8-(3-propylphenoxy)-1H-purine-2,6(3H,7H)-dione], under 100 nM.
Turning to `CCOCCS(=O)(=O)c1nc2c(c(=O)n(C)c(=O)n2C)n1Cc1cccc(Br)c1` [Compound 14, 7-(3-bromobenzyl)-8-(2-ethoxyethylsulfonyl)-1,3-dimethyl-1H-purine-2,6(3H,7H)-dione], the IC50 is 1000 to 2000 nM.
The same measure for `CCc1coc(CSc2nc3c(c(=O)n(C)c(=O)n3C)n2Cc2cccc(OC(F)(F)F)c2)n1` [Compound 106, 8-((4-ethyloxazol-2-yl)methylthio)-1,3-dimethyl-7-(3-(trifluoromethoxy)benzyl)-1H-purine-2,6(3H,7H)-dione]: 100 to 500 nM; for `Cn1c(=O)c2c(nc(OCC3CCCC3)n2Cc2ccc(Cl)cc2)n(C)c1=O` [Compound 216, 7-(4-Chlorobenzyl)-8-(cyclopentylmethoxy)-1,3-dimethyl-1H-purine-2,6(3H,7H)-dione]: 100 to 500 nM; for `CCOCCOc1nc2c(c(=O)n(C)c(=O)n2C)n1Cc1cccc(Br)c1` [Compound 18, 7-(3-bromobenzyl)-8-(2-ethoxyethoxy)-1,3-dimethyl-1H-purine-2,6(3H,7H)-dione]: 1000 to 2000 nM.
The same measure for `CCCNCCc1nc2c(c(=O)n(C)c(=O)n2C)n1Cc1cccc(Br)c1` [Compound 46]: 2000 to 10000 nM.
The same measure for `CCCOCCc1nc2c(c(=O)n(C)c(=O)n2C)n1Cc1ccc(OC(F)(F)F)cc1` [Compound 109]: 1000 to 2000 nM.
As for `Cn1c(=O)c2c(nc(Oc3cccc(OC(F)(F)F)c3)n2Cc2ccc(Cl)c(Cl)c2)n(C)c1=O` [Compound 197, 7-(3,4-dichlorobenzyl)-1,3-dimethyl-8-(3-(trifluoromethoxy)phenoxy)-1H-purine-2,6(3H,7H)-dione], the IC50 was under 100 nM.
To `Cn1c(=O)c2c(nc(SCCCC#N)n2Cc2cccc(Cl)c2)n(C)c1=O` [Compound 62] belongs 1000 to 2000 nM; to `CCOCc1cccc(C(CC)c2nc3c(c(=O)n(C)c(=O)n3C)n2Cc2cccc(Br)c2)c1` (centres unmarked) [Compound 125, 7-(3-bromobenzyl)-8-(1-(3-(ethoxymethyl)phenyl)propyl)-1,3-dimethyl-1H-purine-2,6(3H,7H)-dione], 500 to 1000 nM; to `CCCOCCc1nc2c(c(=O)n(C)c(=O)n2C)n1Cc1ccc(CO)cc1` [Compound 151], 2000 to 10000 nM.
To `CN1CCN(Cc2nc3c(c(=O)n(C)c(=O)n3C)n2Cc2cccc(Br)c2)CC1` [Compound 51] belongs 2000 to 10000 nM; to `CCCC(O)C(C)(C)Sc1nc2c(c(=O)n(C)c(=O)n2C)n1Cc1cccc(Br)c1` (centres unmarked) [Compound 122, 7-(3-bromobenzyl)-8-(3-hydroxy-2-methylhexan-2-ylthio)-1,3-dimethyl-1H-purine-2,6(3H,7H)-dione], under 100 nM; to `CCC(=O)CSc1nc2c(c(=O)n(C)c(=O)n2C)n1Cc1cccc(Br)c1` [Compound 1, 7-(3-bromobenzyl)-1,3-dimethyl-8-(2-oxobutylthio)-1H-purine-2,6(3H,7H)-dione], 500 to 1000 nM.
The same measure for `Cn1c(=O)c2c(nc(CC(=O)NCCO)n2Cc2cccc(Br)c2)n(C)c1=O` [Compound 38, 2-(7-(3-Bromobenzyl)-1,3-dimethyl-2,6-dioxo-2,3,6,7-tetrahydro-1H-purin-8-yl)-N-(2-hydroxyethyl)acetamide]: 2000 to 10000 nM.
On to `CCOC(=O)CC(C)(C)c1nc2c(c(=O)n(C)c(=O)n2C)n1Cc1cccc(Br)c1` [Compound 96, Ethyl 3-(7-(3-bromobenzyl)-1,3-dimethyl-2,6-dioxo-2,3,6,7-tetrahydro-1H-purin-8-yl)-3-methylbutanoate], for which the IC50 was 500 to 1000 nM.
The same measure for `CCc1coc(CSc2nc3c(c(=O)n(C)c(=O)n3C)n2Cc2ccc(F)cc2)n1` [Compound 156, 8-((4-ethyloxazol-2-yl)methylthio)-7-(4-fluorobenzyl)-1,3-dimethyl-1H-purine-2,6(3H,7H)-dione]: 100 to 500 nM.
The same measure for `Cn1c(=O)c2c(nc(SCc3ccccc3F)n2Cc2ccc(Cl)c(Cl)c2)n(C)c1=O` [Compound 58]: 100 to 500 nM; for `CCOc1nc2c(c(=O)n(C)c(=O)n2C)n1Cc1cccc(Br)c1` [Compound 28, 7-(3-bromobenzyl)-8-ethoxy-1,3-dimethyl-1H-purine-2,6(3H,7H)-dione]: 2000 to 10000 nM.
The same measure for `Cn1c(=O)c2c(nc(SCC#N)n2Cc2cccc(Br)c2)n(C)c1=O` [Compound 7]: 2000 to 10000 nM; for `CCCCC(=O)c1nc2c(c(=O)n(C)c(=O)n2C)n1Cc1cccc(Br)c1` [Compound 105, 7-(3-bromobenzyl)-1,3-dimethyl-8-pentanoyl-1H-purine-2,6(3H,7H)-dione]: under 100 nM; for `CN(C)CCCSc1nc2c(c(=O)n(C)c(=O)n2C)n1Cc1cccc(Br)c1` [Compound 22]: 2000 to 10000 nM.
Turning to `CCc1coc(C(C)(C)Sc2nc3c(c(=O)n(C)c(=O)n3C)n2Cc2cccc(Br)c2)n1` [Compound 100, 7-(3-bromobenzyl)-8-(2-(4-ethyloxazol-2-yl)propan-2-ylthio)-1,3-dimethyl-1H-purine-2,6(3H,7H)-dione], the IC50 was 100 to 500 nM.
To `CCCNC(=O)Cc1nc2c(c(=O)n(C)c(=O)n2C)n1Cc1cccc(Br)c1` [Compound 27, 2-(7-(3-Bromobenzyl)-1,3-dimethyl-2,6-dioxo-2,3,6,7-tetrahydro-1H-purin-8-yl)-N-propylacetamide] belongs 2000 to 10000 nM.
To `Cc1cccc(Cn2c(Oc3cccc(OC(F)(F)F)c3)nc3c2c(=O)n(C)c(=O)n3C)c1` [Compound 167, 1,3-dimethyl-7-(3-methylbenzyl)-8-(3-(trifluoromethoxy)phenoxy)-1H-purine-2,6(3H,7H)-dione] belongs under 100 nM.

Source of the values: US20160145257A1, “SUBSTITUTED XANTHINES AND METHODS OF USE THEREOF” (Hydra Biosciences, Inc., priority 2013, published 2016).
